*1 amine or outer side, *2 acyl side, *3 side chain or, on linkers, in order; H or OH if unused. Where a SMILES comes first, the peptide text is derived from it. Bridges are numbered along the chain shown (N, C = ends). [ ]: non-standard residue; d: D form. The star is where a group is joined. X4 = O=C([C@H](CCNC[C@@H](O)[C@H](O)[C@H](O)[C@@H](O)[C@H](O)CO)N[*:1])[*:2]; Asp(3,3-Me2) = CC(C)(C(=O)O)[C@H](N)C(=O)O; Bip = N[C@@H](Cc1ccc(-c2ccccc2)cc1)C(=O)O; Phe(3-Me) = Cc1cccc(C[C@H](N)C(=O)O)c1; Phe(2-F) = N[C@@H](Cc1ccccc1F)C(=O)O; 3Pal = N[C@@H](Cc1cccnc1)C(=O)O; 4Pal = N[C@@H](Cc1ccncc1)C(=O)O; Cha = N[C@@H](CC1CCCCC1)C(=O)O; Cit = NC(=O)NCCC[C@H](N)C(=O)O; Carboxymethyl = O=C(O)C*; Nle = CCCC[C@H](N)C(=O)O; Orn = NCCC[C@H](N)C(=O)O; Pra = C#CC[C@H](N)C(=O)O; Dab = NCC[C@H](N)C(=O)O; Nva = CCC[C@H](N)C(=O)O; Dap = NC[C@H](N)C(=O)O

The target in the experiment is T1, human PD-1 / PD-L1-Ig binding on Jurkat cell line over-expressing human PD-1 (Jurkat-PD-1) (Homo sapiens, UniProt Q15116).
T1 construct: expressed in transfected cells; host or cells: Jurkat
T1 sequence (Q15116 25-288): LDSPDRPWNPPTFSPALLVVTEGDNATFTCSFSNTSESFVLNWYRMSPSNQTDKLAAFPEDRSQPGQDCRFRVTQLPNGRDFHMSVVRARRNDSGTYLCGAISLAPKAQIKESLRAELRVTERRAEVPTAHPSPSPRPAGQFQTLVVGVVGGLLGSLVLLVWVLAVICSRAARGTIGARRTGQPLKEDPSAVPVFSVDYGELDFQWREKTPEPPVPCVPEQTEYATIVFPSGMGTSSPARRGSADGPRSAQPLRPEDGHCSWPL
Description: Jurkat-PD-1 Cell Binding High-Content Screening Assay (CBA). Format: cell-based. The conditions noted are these: Jurkat-PD-1 cells, PE-labeled PD-L1-Ig 20 nM final; read-out: Jurkat HPD1_PDL1 IC50. The protocol:
Example 3. Jurkat-PD-1 Cell Binding High-Content Screening Assay (CBA)
Jurkat-PD-1 Cell Binding High-Content Screening Assay (CBA). Phycoerythrin (PE) was covalently linked to the Ig epitope tag of human PD-L1-Ig and fluorescently-labeled PD-L1-Ig was used for binding studies with a Jurkat cell line over-expressing human PD-1 (Jurkat-PD-1). Briefly, 8×10^3 Jurkat-hPD-1 cells were seeded into 384 well plates in 20 μl of DMEM supplemented with 10% fetal calf serum. 100 nL of compound was added to cells followed by incubation at 37° C. for 2 h. Then, 5 μl of PE-labeled PD-L1-Ig (20 nM final), diluted in DMEM supplemented with 10% fetal calf serum. After 1 hour incubation, cells were fixed with 4% paraformaldehyde in dPBS containing 10 μg/ml Hoechst 33342 and then washed 3x in 100 μl dPBS. Data was collected and processed using a Cell Insight NXT High Content Imager and associated software.

`Cc1cccc(C[C@@H]2NC(=O)[C@H](CC(=O)O)NC(=O)[C@H](Cc3ccncc3)NC(=O)[C@H](CN)NC(=O)CSC[C@@H](C(=O)N[C@@H](C)C(N)=O)NC(=O)[C@H]([C@@H](C)O)NC(=O)[C@H](C(C)C)NC(=O)[C@H](CC3CCCCC3)NC(=O)[C@H](CCN)NC(=O)[C@@H](CC(C)C)NC(=O)[C@H](CCCN)NC(=O)[C@H](CCC(=O)O)NC(=O)[C@H](Cc3ccc(-c4ccccc4)cc3)NC(=O)[C@H](C(C)C)NC2=O)c1` [Compound 1418] ({CH2CO}-[Dap][4Pal]D[Phe(3-Me)]V[Bip]E[Orn][dL][Dab][Cha]VTCA-NH2; thioether N-14): the IC50 (in general, the concentration needed to halve the response being measured) is 8.1 nM.

For `CCC(C)[C@@H]1NC(=O)[C@H](Cc2ccc(-c3ccccc3)cc2)NC(=O)[C@H](C(C)C)NC(=O)[C@H](Cc2cccc(C)c2)NC(=O)[C@H](CC(=O)O)NC(=O)[C@H](Cc2ccc(C(=O)O)cc2)NC(=O)[C@H](Cc2ccncc2)NC(=O)CSC[C@@H](C(=O)N[C@@H](CC(N)=O)C(N)=O)NC(=O)[C@H]([C@@H](C)O)NC(=O)[C@H](C(C)C)NC(=O)[C@H](CC2CCCCC2)NC(=O)[C@H](CCN)NC(=O)[C@@H](CC(C)C)NC(=O)[C@H](CCCN)NC1=O` (some centres unmarked) [Compound 2299], the half-inhibitory concentration (IC50) was found to be 14.4 nM.

In the case of `CC(C)C[C@H]1NC(=O)[C@H](CCCN)NC(=O)[C@H](CCC(=O)O)NC(=O)[C@H](Cc2ccc(-c3ccccc3)cc2)NC(=O)[C@H](C(C)C)NC(=O)[C@H](Cc2c[nH]c3ccccc23)NC(=O)[C@H](CC(=O)O)NC(=O)[C@H](Cc2ccncc2)NC(=O)[C@H](CC(N)=O)NC(=O)CSC[C@@H](C(=O)N[C@@H](C)C(N)=O)NC(=O)[C@H]([C@@H](C)O)NC(=O)[C@H](C(C)C)NC(=O)[C@H](CC2CCCCC2)NC(=O)[C@H](CCN)NC1=O` [Compound 2195] ({CH2CO}-N[4Pal]DWV[Bip]E[Orn][dL][Dab][Cha]VTCA-NH2; thioether N-14), the IC50 was 22.8 nM.

Take `Cc1cccc(C[C@@H]2NC(=O)[C@H](CC(=O)O)NC(=O)[C@H](Cc3ccc(OCC(=O)O)cc3)NC(=O)[C@H](CCN)NC(=O)CSC[C@@H](C(=O)N[C@@H](CCN)C(N)=O)NC(=O)[C@H](CO)NC(=O)[C@H](C(C)(C)C(=O)O)NC(=O)[C@H](CC3CCCCC3)NC(=O)[C@H](CCN)NC(=O)[C@@H](CC(C)C)NC(=O)[C@H](CCCN)NC(=O)[C@H](Cc3ccc(OCC(=O)O)cc3)NC(=O)[C@H](Cc3ccc(-c4ccccc4)cc3)NC(=O)[C@H](Cc3ccc(OCC(=O)O)cc3)NC2=O)c1` [Compound 2070] ({CH2CO}-[Dab]Y(Carboxymethyl)D[Phe(3-Me)]Y(Carboxymethyl)[Bip]Y(Carboxymethyl)[Orn][dL][Dab][Cha][Asp(3,3-Me2)]SC[Dab]-NH2; thioether N-14): the half-maximal inhibitory concentration (IC50) amounted to 17 nM.

On to `CC(C)C[C@@H]1NC(=O)[C@H](Cc2c[nH]c3ccccc23)NC(=O)[C@H](CC(=O)O)NC(=O)[C@H](Cc2ccc(OCC(=O)O)cc2)NC(=O)[C@H](Cc2ccncc2)NC(=O)CSC[C@@H](C(=O)NCC(N)=O)NC(=O)[C@H](CO)NC(=O)[C@H](C(C)C)NC(=O)[C@H](CC2CCCCC2)NC(=O)[C@H](CCN)NC(=O)[C@@H](CC(C)C)NC(=O)[C@H](CCCN)NC(=O)[C@H](C(C)C)NC(=O)[C@H](Cc2ccc(-c3ccccc3)cc2)NC1=O` [Compound 1402] ({CH2CO}-[4Pal]Y(Carboxymethyl)DWL[Bip]V[Orn][dL][Dab][Cha]VSCG-NH2; thioether N-14), for which the IC50 came out at 9.9 nM.

As for `CC(C)C[C@H]1NC(=O)[C@H](CCCN)NC(=O)[C@H](CCCN)NC(=O)[C@H](Cc2ccc(-c3ccccc3)cc2)NC(=O)[C@H](C(C)C)NC(=O)[C@H](Cc2c[nH]c3ccccc23)NC(=O)[C@H](CC(=O)O)NC(=O)[C@H](Cc2ccc(OCC(=O)O)cc2)NC(=O)[C@H](Cc2ccncc2)NC(=O)CSC[C@@H](C(=O)N[C@@H](C)C(N)=O)NC(=O)[C@H]([C@@H](C)O)NC(=O)[C@H](C(C)C)NC(=O)[C@H](CC2CCCCC2)NC(=O)[C@H](CCN)NC1=O` [Compound 1390], the IC50 was determined as 16.5 nM.

As for `CCCC[C@H]1NC(=O)[C@H](CCCN)NC(=O)[C@H](CCCNC(N)=O)NC(=O)[C@H](Cc2ccc(-c3ccccc3)cc2)NC(=O)[C@H](C(C)C)NC(=O)[C@H](Cc2c[nH]c3ccccc23)NC(=O)[C@H](CC(=O)O)NC(=O)[C@H](Cc2ccncc2)NC(=O)[C@H](Cc2ccc(OCC(=O)O)cc2)NC(=O)CSC[C@@H](C(=O)N[C@@H](C)C(N)=O)NC(=O)[C@H]([C@@H](C)O)NC(=O)[C@H](C(C)C)NC(=O)[C@H](CC2CCCCC2)NC(=O)[C@H](CCN)NC1=O` [Compound 1702], the 50% inhibitory concentration (IC50) is 17 nM.

As to `CC(C)C[C@@H]1NC(=O)[C@H](Cc2c[nH]c3ccccc23)NC(=O)[C@H](CC(=O)O)NC(=O)[C@H](Cc2ccc(O)cc2)NC(=O)[C@H](Cc2ccccc2)NC(=O)CSC[C@@H](C(=O)NCC(N)=O)NC(=O)[C@H](CO)NC(=O)[C@H](C(C)C)NC(=O)[C@H](CC(C)C)NC(=O)[C@H](CCN)NC(=O)[C@@H](C)NC(=O)[C@H](CN)NC(=O)[C@H](C(C)C)NC(=O)[C@H](Cc2ccc(-c3ccccc3)cc2)NC1=O` [Compound 1098] ({CH2CO}-FYDWL[Bip]V[Dap][dA][Dab]LVSCG-NH2; thioether N-14), the IC50 came out at 115 nM.

Consider `Cc1cccc(C[C@@H]2NC(=O)[C@H](CC(=O)O)NC(=O)[C@H](Cc3ccc(OCC(=O)O)cc3)NC(=O)[C@H](Cc3cccnc3)NC(=O)CSC[C@@H](C(=O)N[C@@H](C)C(N)=O)NC(=O)[C@H]([C@@H](C)O)NC(=O)[C@H](C(C)C)NC(=O)[C@H](CC(C)C)NC(=O)[C@H](CCN)NC(=O)[C@@H](CC(C)C)NC(=O)[C@H](CCCN)NC(=O)[C@H](CCCNC(N)=O)NC(=O)[C@H](Cc3ccc(-c4ccccc4)cc3)NC(=O)[C@H](C(C)C)NC2=O)c1` [Compound 1225] ({CH2CO}-[3Pal]Y(Carboxymethyl)D[Phe(3-Me)]V[Bip][Cit][Orn][dL][Dab]LVTCA-NH2; thioether N-14), for which the IC50 was determined as 6.2 nM.

For `C#CC[C@H](NC(=O)[C@@H]1CSCC(=O)N[C@@H](CCC)C(=O)N[C@@H](Cc2ccc(OCC(=O)O)cc2)C(=O)N[C@@H](CC(=O)O)C(=O)N[C@@H](Cc2cccc(C)c2)C(=O)N[C@@H](Cc2ccc(OCC(=O)O)cc2)C(=O)N[C@@H](Cc2ccc(-c3ccccc3)cc2)C(=O)N[C@@H](Cc2ccc(OCC(=O)O)cc2)C(=O)N[C@@H](CCCC)C(=O)N[C@H](CC(C)C)C(=O)N[C@@H](CCNC[C@@H](O)[C@H](O)[C@H](O)[C@@H](O)[C@H](O)CO)C(=O)N[C@@H](CC2CCCCC2)C(=O)N[C@@H](C(C)C)C(=O)N[C@@H](CCC(=O)O)C(=O)N1)C(=O)O` [Compound 2699] ({CH2CO}-[Nva]Y(Carboxymethyl)D[Phe(3-Me)]Y(Carboxymethyl)[Bip]Y(Carboxymethyl)[Nle][dL][X4][Cha]VEC[Pra]-OH; thioether N-14), the IC50 was 239 nM.

In the case of `CC(=O)NCCC[C@@H]1NC(=O)[C@H](Cc2ccc(OCC(=O)O)cc2)NC(=O)[C@H](Cc2ccc(-c3ccccc3)cc2)NC(=O)[C@H](Cc2ccc(O)cc2)NC(=O)[C@H](Cc2cccc(C)c2)NC(=O)[C@H](CC(=O)O)NC(=O)[C@H](Cc2ccc(OCC(=O)O)cc2)NC(=O)[C@H](CCCNC(=N)N)NC(=O)CSC[C@@H](C(N)=O)NC(=O)[C@H]([C@@H](C)O)NC(=O)[C@H](C(C)C)NC(=O)[C@H](CC2CCCCC2)NC(=O)[C@H](CCN)NC(=O)[C@@H](CC(C)C)NC1=O` [Compound 2051] ({CH2CO}-RY(Carboxymethyl)D[Phe(3-Me)]Y[Bip]Y(Carboxymethyl)[Orn](Ac)[dL][Dab][Cha]VTC-NH2; thioether N-14), the IC50 turned out to be 48.5 nM.

`CCC[C@@H]1NC(=O)[C@H](Cc2c[nH]c3ccccc23)NC(=O)[C@H](CC(=O)O)NC(=O)[C@H](Cc2ccc(OCC(=O)O)cc2)NC(=O)[C@H](CN)NC(=O)CSC[C@@H](C(=O)N[C@@H](C)C(N)=O)NC(=O)[C@H]([C@@H](C)O)NC(=O)[C@H](C(C)C)NC(=O)[C@H](CC2CCCCC2)NC(=O)[C@H](CCN)NC(=O)[C@@H](CC(C)C)NC(=O)[C@H](CCCN)NC(=O)[C@H](CCC(=O)O)NC(=O)[C@H](Cc2ccc(-c3ccccc3)cc2)NC1=O` [Compound 1719]: the half-maximal inhibitory concentration (IC50) was 21 nM.

`CC(C)C[C@H]1NC(=O)[C@H](CCCN)NC(=O)[C@H](CCC(=O)O)NC(=O)[C@H](Cc2ccc(-c3ccccc3)cc2)NC(=O)[C@H](C(C)C)NC(=O)[C@H](Cc2ccccc2F)NC(=O)[C@H](CC(=O)O)NC(=O)[C@H](Cc2ccncc2)NC(=O)[C@H](Cc2ccccc2)NC(=O)CSC[C@@H](C(=O)N[C@@H](C)C(N)=O)NC(=O)[C@H]([C@@H](C)O)NC(=O)[C@H](C(C)C)NC(=O)[C@H](CC2CCCCC2)NC(=O)[C@H](CCN)NC1=O` [Compound 2208] ({CH2CO}-F[4Pal]D[Phe(2-F)]V[Bip]E[Orn][dL][Dab][Cha]VTCA-NH2; thioether N-14): the IC50 was 30.6 nM.

Regarding `CC(C)C[C@H]1NC(=O)[C@H](CCCN)NC(=O)[C@H](C(C)C)NC(=O)[C@H](Cc2ccc(-c3ccccc3)cc2)NC(=O)[C@H](C(C)C)NC(=O)[C@H](Cc2c[nH]c3ccccc23)NC(=O)[C@H](CC(=O)O)NC(=O)[C@H](Cc2ccc(OCC(=O)O)cc2)NC(=O)[C@H](Cc2ccc(OCC(=O)O)cc2)NC(=O)CSC[C@@H](C(=O)N[C@@H](C)C(N)=O)NC(=O)[C@H](CCCCN)NC(=O)[C@H](C(C)C)NC(=O)[C@H](CC2CCCCC2)NC(=O)[C@H](CCN)NC1=O` [Compound 1746] ({CH2CO}-Y(Carboxymethyl)Y(Carboxymethyl)DWV[Bip]V[Orn][dL][Dab][Cha]VKCA-NH2; thioether N-14), the IC50 came out at 8.8 nM.
